Test results published in PubChem BioAssay AID1845208 (Molecular Pharmacology Branch, DTP, NCI, 2023).

System: NCI-H196 SCLC complex tumor spheroid viability
Experiment: Anticancer human tumor NCI-H196 cell line growth inhibition;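 further: spheroids exposed to compounds for 7 days before readout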;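 on viability, T/C: 100% = DMSO vehicle control wells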
Conditions: for IC50: curve of first compound; for viability, T/C: stronger effect = lower value
Text: Multicellular complex tumor spheroid response to DNA repair inhibitors in combination with DNA-damaging drugs
This study explores the anticancer activities of DNA-damaging drugs and inhibitors of DNA damage repair, both as single agents and in combinations. Complex tumor spheroids comprised of malignant cells, endothelial cells and mesenchymal stem cells served as an in vitro model for human solid tumors. This model system incorporates physiologically relevant features and patient-derived or established malignant cell lines with clinically relevant genetic alterations from many tumor types. Twenty-six patient-derived or established malignant cell lines were evaluated representing sarcoma, melanoma, small cell lung cancer (SCLC), non-small cell lung cancer (NSCLC), as well as bladder, ovarian and pancreatic cancers. The concentration ranges selected for each drug and investigational agent were based upon clinically achievable concentrations if the clinical Cmax of the agent was known.
Compounds. The drugs and compounds olaparib (NSC753686), talazoparib (NSC767125), berzosertib (NSC777718), elimusertib (NSC800525), nedisertib (NSC802822), VX-984 (NSC792969), AZD-1390 (NSC803789), temozolomide (NSC362856), topotecan (NSC609699), trabectedin (NSC813783), staurosporine (NSC755774), and gemcitabine (NSC613327) were obtained from the National Cancer Institute (NCI) Developmental Therapeutics Program Chemical Repository. The FDA-approved anticancer drug set is available from the Developmental Therapeutics Program at https://dtp.cancer.gov/organization/dscb/obtaining/available_plates.htm. […] The stock solutions were prepared in dimethyl sulfoxide (DMSO, Sigma-Aldrich, St. Louis, MO, cat. D2650) at 400-fold the tested concentration and stored at -70 degrees C. Prior to their use, the stock solutions were diluted in fresh medium and the final DMSO concentration in the assay was 0.25% (v/v). All drugs and investigational agents were tested over a range starting from a high concentration at or near the clinical Cmax and decreasing in half-log increments. If the clinical Cmax for an agent had not been determined, the highest concentration tested was 10 microM.
Cell Lines. The patient-derived cancer cell (PDC) lines: 156681-154-R-J1-PDC, 283228-195-R-J1-PDC, 287954-098-R-J1-PDC, 292921-168-R-J2-PDC, 349418-098-R-PDC, 425362-245-T-J1-PDC, 556581-035-R-J1-PDC, and BL0293-F563-PDC were received from the NCI Patient-Derived Models Repository (PDMR, https://pdmr.cancer.gov). The established cell lines HS-SY-2 (RRID:CVCL_8719), MPNST, and SYO-1 (RRID:CVCL_7146) were obtained from the Sloan Kettering Institute. The alveolar soft parts sarcoma cell line ASPS-1 (RRID:CVCL_S738) was established at the NCI and grown from internal seed stocks. The following established cell lines were purchased from the American Type Culture Collection (ATCC, Manassas, VA): G-401 (ATCC, cat. CRL-1441, RRID:CVCL_0270), SW982 (ATCC, cat. HTB-93, RRID:CVCL_1734), VA-ES-BJ (ATCC, cat. CRL-2138, RRID:CVCL_1785), NCI-H719 (ATCC, cat. CRL-5837, RRID:CVCL_1582), NCI-H196 (ATCC, cat. CRL-5823, RRID:CVCL_1509), NCI-H841 (ATCC, cat. CRL-5845, RRID:CVCL_1595), NCI-H1618 (ATCC, cat. CRL-5879, RRID:CVCL_1480), NCI-H1876 (ATCC, cat. CRL-5902, RRID:CVCL_1503), DMS 114 (ATCC, cat. CRL-2066; RRID:CVCL_1174), NCI-H211 (ATCC, cat. CRL-5824; RRID:CVCL_1529), and SW 1271 (ATCC, cat. CRL-2177, RRID:CVCL_1716). The small cell lung cancer cell line COR-L88 was purchased from Sigma-Aldrich (cat. 92031917-1VL, RRID:CVCL_1141). The non-small cell lung cancer cell lines NCI-H226 (RRID:CVCL_1544) and NCI-H322M (RRID:CVCL_1557) were established at the NCI and grown from internal seed stocks. Pooled donor human umbilical vein endothelial cells (HUVEC, Lonza, cat. CC-2519) and human mesenchymal stem cells (hMSC, Lonza, cat. PT-2501) were purchased from Lonza (Walkersville, MD).
Cell Culture. All cells were maintained in an incubator at 37 degrees C and 5% CO2 with 95% humidity. […]

[1] = second compound 0.003 µM, first compound 0.0949 µM
[2] = second compound 0.003 µM, first compound 0.3 µM
[3] = second compound 0.003 µM, first compound 0.949 µM
[4] = second compound 0.003 µM, first compound 3 µM
[5] = second compound 0.00949 µM, first compound 0.0949 µM
[6] = second compound 0.00949 µM, first compound 0.3 µM
[7] = second compound 0.00949 µM, first compound 0.949 µM
[8] = second compound 0.00949 µM, first compound 3 µM
[9] = second compound 0.03 µM, first compound 0.0949 µM
[10] = second compound 0.03 µM, first compound 0.3 µM
[11] = second compound 0.03 µM, first compound 0.949 µM
[12] = second compound 0.03 µM, first compound 3 µM
[13] = second compound 0.0949 µM, first compound 0.0949 µM
[14] = second compound 0.0949 µM, first compound 0.3 µM
[15] = second compound 0.0949 µM, first compound 0.949 µM
[16] = second compound 0.0949 µM, first compound 3 µM
[17] = second compound 0.3 µM, first compound 0.0949 µM
[18] = second compound 0.3 µM, first compound 0.3 µM
[19] = second compound 0.3 µM, first compound 0.949 µM
[20] = second compound 0.3 µM, first compound 3 µM

Structure (SMILES) | IC50 (second compound 0.003 µM) | IC50 (second compound 0.00949 µM) | IC50 (second compound 0.03 µM) | IC50 (second compound 0.0949 µM) | IC50 (second compound 0.3 µM) | viability, T/C [1] | viability, T/C [2] | viability, T/C [3] | viability, T/C [4] | viability, T/C [5] | viability, T/C [6] | viability, T/C [7] | viability, T/C [8] | viability, T/C [9] | viability, T/C [10] | viability, T/C [11] | viability, T/C [12] | viability, T/C [13] | viability, T/C [14] | viability, T/C [15] | further results
Cn1ncnc1[C@H]1c2n[nH]c(=O)c3cc(F)cc(c23)N[C@@H]1c1ccc(F)cc1 + CC[C@@]1(O)C(=O)OCc2c1cc1n(c2=O)Cc2cc3c(CN(C)C)c(O)ccc3nc2-1 | > 3 µM | > 3 µM | > 3 µM | > 3 µM | > 3 µM | 96.9% | 95.3% | 95% | 98.2% | 95.5% | 105% | 104% | 102% | 113% | 108% | 104% | 97.4% | 105% | 110% | 106% | viability, T/C (second compound 0.003 µM, first compound 0.00949 µM): 97.6%; viability, T/C (second compound 0.003 µM, first compound 0.03 µM): 90.2%; viability, T/C (second compound 0.00949 µM, first compound 0.00949 µM): 96.5%; viability, T/C (second compound 0.00949 µM, first compound 0.03 µM): 87.7%; viability, T/C (second compound 0.03 µM, first compound 0.00949 µM): 104%; viability, T/C (second compound 0.03 µM, first compound 0.03 µM): 110%; viability, T/C (second compound 0.0949 µM, first compound 0.00949 µM): 108%; viability, T/C (second compound 0.0949 µM, first compound 0.03 µM): 108%; viability, T/C [16]: 96.8%; viability, T/C (second compound 0.3 µM, first compound 0.00949 µM): 99.1%; viability, T/C (second compound 0.3 µM, first compound 0.03 µM): 99.9%; viability, T/C [17]: 91%; viability, T/C [18]: 95.3%; viability, T/C [19]: 91.2%; viability, T/C [20]: 82.5%
O=C(c1cc(Cc2n[nH]c(=O)c3ccccc23)ccc1F)N1CCN(C(=O)C2CC2)CC1 + CC[C@@]1(O)C(=O)OCc2c1cc1n(c2=O)Cc2cc3c(CN(C)C)c(O)ccc3nc2-1 | > 30 µM | > 30 µM | > 30 µM | > 30 µM | > 30 µM | 95.4% | 95.2% | 88.3% | 88.2% | 97.7% | 91.3% | 98.7% | 95.9% | 100% | 98% | 101% | 103% | 96.3% | 107% | 99.6% | viability, T/C (second compound 0.003 µM, first compound 9.49 µM): 88.6%; viability, T/C (second compound 0.003 µM, first compound 30 µM): 85.6%; viability, T/C (second compound 0.00949 µM, first compound 9.49 µM): 94.3%; viability, T/C (second compound 0.00949 µM, first compound 30 µM): 96.6%; viability, T/C (second compound 0.03 µM, first compound 9.49 µM): 98.2%; viability, T/C (second compound 0.03 µM, first compound 30 µM): 92%; viability, T/C [16]: 99.6%; viability, T/C (second compound 0.0949 µM, first compound 9.49 µM): 102%; viability, T/C (second compound 0.0949 µM, first compound 30 µM): 97.2%; viability, T/C [17]: 86.8%; viability, T/C [18]: 90.9%; viability, T/C [19]: 88.4%; viability, T/C [20]: 93.9%; viability, T/C (second compound 0.3 µM, first compound 9.49 µM): 82.5%; viability, T/C (second compound 0.3 µM, first compound 30 µM): 83.1%
